Measurements: US20240174669A1, “CRYSTALLINE FORMS OF A PARP1 INHIBITOR” (XinThera, Inc., priority 2022, published 2024)
Converted amounts (≈) assume the structure as drawn. Like-named read-outs stand apart in the source and are kept apart here.

Assay: Solubility in bio-relevant media, water and pH buffers (HPLC of filtrate, XRPD of filter cake)
Type: physicochemical
Conditions: for solubility at 0.5 h / solubility at 2 h / solubility at 24 h / solubility / solubility at 4 h / solubility at 8 h: thermodynamic from solid; for solubility at 0.5 h: read-out: Solubility (mg/mL) 0.5 h; for solubility at 2 h: read-out: Solubility (mg/mL) 2 h; for solubility at 24 h: read-out: Solubility (mg/mL) 24 h; for Solubility (mg/mL) 0.5 h / Solubility (mg/mL) 2 h / Solubility (mg/mL) 4 h / Solubility (mg/mL) 8 h: listed as Freebase Form II (Lot #2); for solubility at 4 h: read-out: Solubility (mg/mL) 4 h; for solubility at 8 h: read-out: Solubility (mg/mL) 8 h
Procedure: About 15 mg of freebase Form II was weighed into sample vials, and then 3 mL of each media was added to make suspensions, respectively. […] Duplicated samples were prepared for each media.
HPLC analysis was performed with an Agilent HPLC 1260 series instrument.

CNC(=O)c1ccc(N2CCN(Cc3cnc4cc(C5CC5)c(=O)[nH]c4c3)CC2)cn1 [Freebase Form II, 5-(4-((7-cyclopropyl-6-oxo-5,6-dihydro-1,5-naphthyridin-3-yl)methyl)piperazin-1-yl)-N-methylpicolinamide]
solubility at 0.5 h (FaSSIF, 37 °C, pH 6.45, fassif, FaSSIF, initial pH 6.45, 37° C., 800 rpm, 0.5 h): 0.016 mg/mL (≈ 38.2 µM)
solubility at 2 h (FaSSIF, 37 °C, pH 6.45, fassif, FaSSIF, initial pH 6.45, 37° C., 800 rpm, 2 h): 0.025 mg/mL (≈ 59.7 µM)
solubility at 24 h (FaSSIF, 37 °C, pH 6.45, fassif, FaSSIF, initial pH 6.45, 37° C., 800 rpm): 0.028 mg/mL (≈ 66.9 µM)
solubility (FaSSIF, 37 °C): ~20 µg/mL (≈ 47.8 µM)
Solubility (mg/mL) 0.5 h (FaSSIF, initial pH 6.50, 0.5 h): 0.015 mg/mL (≈ 35.8 µM)
Solubility (mg/mL) 2 h (FaSSIF, initial pH 6.50, 2 h): 0.015 mg/mL (≈ 35.8 µM)
Solubility (mg/mL) 4 h (FaSSIF, initial pH 6.50, 4 h): 0.017 mg/mL (≈ 40.6 µM)
Solubility (mg/mL) 8 h (FaSSIF, initial pH 6.50, 8 h): 0.016 mg/mL (≈ 38.2 µM)
solubility at 0.5 h (FaSSIF, pH 6.5, fassif, FaSSIF, initial pH 6.50, 0.5 h): 0.016 mg/mL (≈ 38.2 µM)
solubility at 2 h (FaSSIF, pH 6.5, fassif, FaSSIF, initial pH 6.50, 2 h): 0.017 mg/mL (≈ 40.6 µM)
solubility at 4 h (FaSSIF, pH 6.5, fassif, FaSSIF, initial pH 6.50, 4 h): 0.021 mg/mL (≈ 50.2 µM)
solubility at 8 h (FaSSIF, pH 6.5, fassif, FaSSIF, initial pH 6.50, 8 h): 0.023 mg/mL (≈ 55 µM)
solubility at 0.5 h (FeSSIF, 37 °C, pH 4.89, fessif, FeSSIF, initial pH 4.89, 37° C., 800 rpm, 0.5 h): 0.087 mg/mL (≈ 208 µM)
solubility at 2 h (FeSSIF, 37 °C, pH 4.89, fessif, FeSSIF, initial pH 4.89, 37° C., 800 rpm, 2 h): 0.101 mg/mL (≈ 241 µM)
solubility at 24 h (FeSSIF, 37 °C, pH 4.89, fessif, FeSSIF, initial pH 4.89, 37° C., 800 rpm): 0.12 mg/mL (≈ 287 µM)
solubility (FeSSIF, 37 °C, pH 4.98, fessif): ~100 µg/mL (≈ 239 µM)
solubility at 8 h (FeSSIF, 37 °C, pH 4.98, fessif, FeSSIF, initial pH 4.98, 8 h): 0.105 mg/mL (≈ 251 µM)
Solubility (mg/mL) 0.5 h (FeSSIF, initial pH 4.98, 0.5 h): 0.087 mg/mL (≈ 208 µM)
Solubility (mg/mL) 2 h (FeSSIF, initial pH 4.98, 2 h): 0.089 mg/mL (≈ 213 µM)
Solubility (mg/mL) 4 h (FeSSIF, initial pH 4.98, 4 h): 0.096 mg/mL (≈ 229 µM)
Solubility (mg/mL) 8 h (FeSSIF, initial pH 4.98, 8 h): 0.101 mg/mL (≈ 241 µM)
solubility at 0.5 h (FeSSIF, pH 4.98, fessif, FeSSIF, initial pH 4.98, 0.5 h): 0.085 mg/mL (≈ 203 µM)
solubility at 2 h (FeSSIF, pH 4.98, fessif, FeSSIF, initial pH 4.98, 2 h): 0.09 mg/mL (≈ 215 µM)
solubility at 4 h (FeSSIF, pH 4.98, fessif, FeSSIF, initial pH 4.98, 4 h): 0.097 mg/mL (≈ 232 µM)
solubility at 0.5 h (SGF, 37 °C, pH 1.27, simulated gastric fluid, SGF, initial pH 1.27, 37° C., 800 rpm, 0.5 h): > 5 mg/mL
solubility at 2 h (SGF, 37 °C, pH 1.27, simulated gastric fluid, SGF, initial pH 1.27, 37° C., 800 rpm, 2 h): > 5 mg/mL
solubility at 24 h (SGF, 37 °C, pH 1.27, simulated gastric fluid, SGF, initial pH 1.27, 37° C., 800 rpm): > 5 mg/mL
solubility (SGF, 37 °C, simulated gastric fluid): > 5000 µg/mL
crystalline form during solubility test (XRPD of filter cake) (all media, up to 24 hours): remained unchanged
solubility (pH 5.0 buffer, 37 °C, pH 5, aqueous buffer): ~50 µg/mL (≈ 119 µM)
solubility at 0.5 h (pH 5.0 buffer, 37 °C, pH 5, aqueous buffer, pH 5.0 buffer, initial pH 4.94, 37° C., 800 rpm, 0.5 h): 0.045 mg/mL (≈ 108 µM)
solubility at 2 h (pH 5.0 buffer, 37 °C, pH 5, aqueous buffer, pH 5.0 buffer, initial pH 4.94, 37° C., 800 rpm, 2 h): 0.05 mg/mL (≈ 119 µM)
solubility at 24 h (pH 5.0 buffer, 37 °C, pH 5, aqueous buffer, pH 5.0 buffer, initial pH 4.94, 37° C., 800 rpm): 0.061 mg/mL (≈ 146 µM)
solubility (pH 6.5 buffer, 37 °C, pH 6.5, aqueous buffer): ~10 µg/mL (≈ 23.9 µM)
solubility at 0.5 h (pH 6.5 buffer, 37 °C, pH 6.5, aqueous buffer, pH 6.5 buffer, initial pH 6.43, 37° C., 800 rpm, 0.5 h): 0.007 mg/mL (≈ 16.7 µM)
solubility at 2 h (pH 6.5 buffer, 37 °C, pH 6.5, aqueous buffer, pH 6.5 buffer, initial pH 6.43, 37° C., 800 rpm, 2 h): 0.008 mg/mL (≈ 19.1 µM)
solubility at 24 h (pH 6.5 buffer, 37 °C, pH 6.5, aqueous buffer, pH 6.5 buffer, initial pH 6.43, 37° C., 800 rpm): 0.01 mg/mL (≈ 23.9 µM)
solubility at 0.5 h (water, 37 °C, pH 4.18, water, Water, initial pH 4.18, 37° C., 800 rpm, 0.5 h): 0.007 mg/mL (≈ 16.7 µM)
solubility at 2 h (water, 37 °C, pH 4.18, water, Water, initial pH 4.18, 37° C., 800 rpm, 2 h): 0.008 mg/mL (≈ 19.1 µM)
solubility at 24 h (water, 37 °C, pH 4.18, water, Water, initial pH 4.18, 37° C., 800 rpm): 0.01 mg/mL (≈ 23.9 µM)
solubility (water, 37 °C): ~10 µg/mL (≈ 23.9 µM)
